How the values were obtained:
[1] = biological target: T1, CDK9 (Homo sapiens, UniProt P50750); experiment: Kinase enzymatic assay (Nanosyn, microfluidic), IC50 curves against CDKs; assay type: biochemical
T1 construct: Nanosyn (contract assay)
Protocol: HDAC inhibitory activity assays were performed using FLUOR DE LYS® HDAC fluorometric activity assay kit from Enzo following the manufacturer's instructions. GloMax®-Multi Detection System (Promega) was used to read the fluorescence signals. Histone methyltransferase and demethylase enzymatic assays were performed by BPS Bioscience at 10 μM in duplicates. Kinase enzymatic assays were performed by Nanosyn using microfluidic technology. 250 kinome screening was done in duplicates using MC180295 at 1 μM. IC50 curves against 10 CDKs were created for MC180295. The human kinome tree was annotated using the online Kinome Render software (Chartier, M., Chénard, T., Barker, J., and Najmanovich, R. (2013). PeerJ 1, e126). Isotope kinase assay was performed using previously described methods (Garriga, J., Peng, J., Parreño, M., Price, D. H., Henderson, E. E., and Graña, X. (1998). Oncogene 17, 3093-3102) using recombinant active full-length CDK9/CyclinT1 (Millipore, 14-685) and SMARCA4 (Abcam, ab82237) in the presence or absence of CDK9 inhibitors.

[2] = test system: YB5; experiment: Cell cycle analysis and sub-G1 (propidium iodide); assay type: cell-based, human; details: four-day drug treatment
Protocol: For drug screening and dose response validations, GFP positive cells were detected by Millipore Guava flow cytometer (EMD, Millipore). Cell cycle analysis was performed using BD FACSCalibur™ by propidium iodide staining four days after drug treatment. Sub-G1 population percentage was also included to measure apoptotic cell proportion. Data were analyzed using FlowJo software version 10.2. For the cell differentiation analysis, cells were washed and stained with propidium iodide (PI), CD11 b (BD Biosciences, #562793) and the isotype control IgG (BD Biosciences, #555748). Flow cytometry analysis was performed on a Millipore Guava flow cytometer (EMD, Millipore). For the ID8 in vivo experiments, ascites was drained from 5-10 mice per group and incubated in ACK buffer (Thermo Fisher) to lyse red blood cells for 10 minutes, then washed. Ascites from each mouse was individually lysed and prepared for flow cytometry. Mononuclear cells collected were cultured for 4 hours in RPMI with 5% Fetal Bovine Serum and in the presence of Cell Stimulation Cocktail (plus protein transport inhibitors; eBioscience). […] Flow cytometry acquisition was performed on an LSRII cytometer (BD Biosciences) and data were analyzed using FlowJo software version 10.2.

[3] = test system: SW48 colon cancer cells; experiment: SW48-luc tumors in NSG mice (bioluminescence); assay type: in vivo, mouse; details: 10 mg/kg
Protocol: SW48-luc cell line was generated by transfecting ffluc2ires-h2b-egfp into SW48 cells. GFP positive cells were sorted out one week after transfection and expanded for the in vivo experiments. NSG mice were then inoculated (i.p.) with 1×10^5 SW48-luc cells. One week later, at which time substantial tumor burden was evident by bioluminescence imaging, 5-20 mg/kg MC180295 or drug solvent was administered (i.p) every other day. 200 uL of diluted Pierce™ D-Luciferin, Monosodium Salt (Fisher, 88292) (working concentration: 15 mg/mL) was administered (i.p) into each mouse and was imaged using IVIS imaging system 5 minutes after the administration. Three vehicle treated mice and five drug treated mice were used in this study. MC180295 was dissolved in NMP, Captisol (20% w/v), PEG-400 and normal saline (PBS) in a ratio of 1:4:4:11. NMP first, followed by Captisol and PEG-400. PBS was added last.

T1 sequence (P50750 whole entry): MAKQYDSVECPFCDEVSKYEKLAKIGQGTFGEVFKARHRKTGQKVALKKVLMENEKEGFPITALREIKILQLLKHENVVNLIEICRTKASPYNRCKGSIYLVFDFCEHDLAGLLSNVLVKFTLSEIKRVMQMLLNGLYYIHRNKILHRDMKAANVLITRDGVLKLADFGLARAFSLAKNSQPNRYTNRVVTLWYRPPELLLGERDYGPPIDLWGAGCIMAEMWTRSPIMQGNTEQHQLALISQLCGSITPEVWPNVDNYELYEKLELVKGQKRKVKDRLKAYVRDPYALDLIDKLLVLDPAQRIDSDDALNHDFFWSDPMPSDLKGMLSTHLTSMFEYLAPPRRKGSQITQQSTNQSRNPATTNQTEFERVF
T1 sequence (O60563 whole entry partner): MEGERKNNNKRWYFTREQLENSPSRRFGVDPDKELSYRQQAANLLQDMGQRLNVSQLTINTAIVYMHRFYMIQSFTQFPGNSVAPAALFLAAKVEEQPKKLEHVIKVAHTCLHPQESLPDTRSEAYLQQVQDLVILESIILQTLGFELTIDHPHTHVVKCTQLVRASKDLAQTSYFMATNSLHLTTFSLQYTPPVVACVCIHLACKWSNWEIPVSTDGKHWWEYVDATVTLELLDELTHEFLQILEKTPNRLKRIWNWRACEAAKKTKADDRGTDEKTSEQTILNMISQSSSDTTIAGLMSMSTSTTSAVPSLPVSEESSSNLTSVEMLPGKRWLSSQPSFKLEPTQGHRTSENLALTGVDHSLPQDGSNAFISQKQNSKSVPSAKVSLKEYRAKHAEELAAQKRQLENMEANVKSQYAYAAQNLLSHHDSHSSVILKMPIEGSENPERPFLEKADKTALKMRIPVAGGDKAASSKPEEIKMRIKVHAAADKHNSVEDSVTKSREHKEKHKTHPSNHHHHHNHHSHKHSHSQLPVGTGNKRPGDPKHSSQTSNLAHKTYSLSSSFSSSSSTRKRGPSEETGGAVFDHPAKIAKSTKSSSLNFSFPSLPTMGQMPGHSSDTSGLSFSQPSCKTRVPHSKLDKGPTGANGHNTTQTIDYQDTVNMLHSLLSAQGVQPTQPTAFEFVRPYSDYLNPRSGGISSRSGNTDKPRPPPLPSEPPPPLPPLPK

Structure (SMILES): Nc1nc(N[C@H]2CC3CCC2C3)sc1C(=O)c1ccccc1[N+](=O)[O-] (stereo partly drawn) [MC180295]
- IC50 [1]: 5 nM
- selectivity for CDK9 over other CDKs ([1]; 10 different CDKs): at least 22 fold
- cell cycle arrest [2]: no cell cycle arrest
- sub-G1 subpopulation [2]: increase in the sub-G1 subpopulation
- tumor shrinkage (luciferase activity) ([3]; after one-week drug exposure): ~50%
- tumor burden (luciferase activity) ([3]; after three weeks drug treatment): lower

Source: US10941126B2, “Bridged bicycloalkyl-substituted aminothiazoles and their methods of use” (Temple University—Of The Commonwealth System of Higher …, priority 2017, dated 2021)
